GI50 and TGI data for 8 molecules are collected here from PubChem BioAssay (NCI).

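1) Cells in 96-well plates. 2) Compound, 48 h, 5 concentrations. 3) Linear interpolation between surrounding doses. 4) Unreached endpoint = highest concentration. GI50 = concentration required for 50% inhibition of growth. TGI denotes the concentration required for complete inhibition of growth.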

Test systems include BT-549 breast; COLO 205 colon; DU-145 prostate; HS 578T breast; M14 melanoma; NCI-H23 lung; NCI-H460 lung; SK-MEL-5 melanoma; SR leukemia; UACC-62 melanoma.
Common to all, as to experiment: inhibition of tumour cell growth, NCI panel, 48 h

As to `O=C1Nc2ccccc2SC1C1SC(=S)N(Cc2ccccc2)C1=O` (centres undefined), the GI50 was 5.71 µM in the assay on BT-549 breast; 3.38 µM with COLO 205 colon; 2.26 µM in the assay on DU-145 prostate; 5.52 µM in the assay on HS 578T breast; 4.6 µM with M14 melanoma; 11.8 µM in the assay on NCI-H23 lung. Besides, the GI50 in the assay on NCI-H460 lung is 8.21 µM; with SK-MEL-5 melanoma it was 13.7 µM; in the assay with SR leukemia it was 4.03 µM; with UACC-62 melanoma, 10.6 µM. Also, the TGI is 22.3 µM with BT-549 breast; 17.8 µM in the assay on COLO 205 colon; 5.58 µM in the assay on DU-145 prostate; 31.2 µM in the assay with HS 578T breast; 19.8 µM in the assay with M14 melanoma; 35.2 µM in the assay with NCI-H23 lung. Moreover, the TGI in the assay on NCI-H460 lung is 29.8 µM; in the assay with SK-MEL-5 melanoma, 29.3 µM; in the assay on SR leukemia, more than 78.2 µM; with UACC-62 melanoma, 23.3 µM.

With `Cc1ccc(NC2=C(Cl)C(=O)c3nc(C)ccc3C2=O)cc1`, the GI50 in the assay with BT-549 breast is 1.45 µM; in the assay with COLO 205 colon, 1.93 µM; in the assay with DU-145 prostate, 1.47 µM; in the assay on HS 578T breast, 1.88 µM; with M14 melanoma it was 1.67 µM; in the assay on NCI-H460 lung it was 1.69 µM. In addition, the figures for the GI50 in the assay with SK-MEL-5 melanoma and in the assay with UACC-62 melanoma were 1.71 µM and 1.57 µM, respectively. Also, the TGI stood at 2.82 µM in the assay on BT-549 breast; 4.37 µM in the assay on COLO 205 colon; 2.85 µM in the assay with DU-145 prostate; 4.8 µM in the assay on HS 578T breast; 3.22 µM in the assay with M14 melanoma; 4.57 µM with NCI-H460 lung. The figures for the TGI in the assay with SK-MEL-5 melanoma and with UACC-62 melanoma were 3.1 µM and 2.97 µM, respectively.

In the case of `Nc1cc(C(F)F)c(-c2nc(N3[C@@H]4CC[C@H]3COC4)nc(N3[C@@H]4CC[C@H]3COC4)n2)cn1`, the GI50 in the assay with BT-549 breast was 0.179 µM; with COLO 205 colon, 0.329 µM; in the assay with DU-145 prostate, 0.426 µM; in the assay on HS 578T breast, 0.18 µM; with M14 melanoma it was 0.295 µM; with NCI-H23 lung it was 0.652 µM. Besides, the GI50 was 0.306 µM in the assay with NCI-H460 lung, 0.407 µM in the assay on SK-MEL-5 melanoma, 0.191 µM in the assay with SR leukemia and 0.212 µM in the assay on UACC-62 melanoma. Moreover, the TGI in the assay with BT-549 breast is 2.77 µM; in the assay on COLO 205 colon, 14.5 µM; with DU-145 prostate it was more than 100 µM; in the assay with HS 578T breast, 0.908 µM; in the assay on M14 melanoma it was 23.9 µM; with NCI-H23 lung it was more than 100 µM. Moreover, the TGI in the assay with NCI-H460 lung was more than 100 µM; with SK-MEL-5 melanoma, 4.48 µM; with SR leukemia, 21 µM; with UACC-62 melanoma, 2.2 µM.

As to `O=C(c1cccs1)c1c(C(F)(F)F)n([O-])c2cc(F)c(F)cc2[n+]1=O`, the GI50 was 1.91 µM with BT-549 breast; 3.15 µM in the assay with COLO 205 colon; 1.9 µM in the assay with DU-145 prostate; 1.21 µM in the assay with HS 578T breast; 2.48 µM with M14 melanoma; 2.26 µM in the assay on NCI-H23 lung. Besides, the GI50 in the assay on NCI-H460 lung is 2.03 µM; in the assay with SK-MEL-5 melanoma, 1.9 µM; in the assay with SR leukemia, 0.096 µM; in the assay with UACC-62 melanoma, 1.54 µM. In addition, the TGI stood at 3.24 µM in the assay with BT-549 breast; 5.9 µM with COLO 205 colon; 4.86 µM in the assay on DU-145 prostate; 12.1 µM in the assay with HS 578T breast; 6.6 µM with M14 melanoma; 4.94 µM in the assay with NCI-H23 lung. Also, the TGI with NCI-H460 lung is 12.5 µM; in the assay with SK-MEL-5 melanoma, 4.44 µM; with SR leukemia it was 0.48 µM; in the assay with UACC-62 melanoma it was 3.58 µM.

As to `O=C1OC(c2ccc([N+](=O)[O-])cc2)=N/C1=C\c1ccc(O)cc1`, the TGI in the assay with BT-549 breast, with COLO 205 colon, in the assay on DU-145 prostate, with HS 578T breast, in the assay with M14 melanoma and in the assay on NCI-H23 lung was more than 100 µM in each case. Also, the TGI in the assay with NCI-H460 lung, in the assay with SK-MEL-5 melanoma, with SR leukemia and with UACC-62 melanoma was more than 100 µM in each case.

For the molecule `O=C(N/N=C/c1cc2ccccc2c2ccccc12)c1cc(O)c(O)c(O)c1`, the GI50 with BT-549 breast is 3.74 µM; in the assay with COLO 205 colon, 3.14 µM; in the assay with DU-145 prostate, 5.79 µM; in the assay on HS 578T breast, 2.67 µM; with M14 melanoma, 4.34 µM; in the assay with NCI-H23 lung it was 3.4 µM. For the same molecule, the GI50 in the assay with NCI-H460 lung was 3.8 µM; in the assay on SK-MEL-5 melanoma, 2.9 µM; with SR leukemia, 3.72 µM; in the assay with UACC-62 melanoma it was 2.75 µM. Moreover, the TGI in the assay on BT-549 breast was determined as 16.8 µM; in the assay on COLO 205 colon, 10.9 µM; in the assay on DU-145 prostate it was 27 µM; with HS 578T breast it was 8.86 µM; in the assay with M14 melanoma, 18.2 µM; in the assay on NCI-H23 lung, 14.3 µM. Further, the TGI in the assay with NCI-H460 lung is 18 µM; with SK-MEL-5 melanoma, 10.6 µM; in the assay on SR leukemia, more than 100 µM; with UACC-62 melanoma, 9.4 µM.

For the molecule `O=C(Nc1ccc(-n2cc(-c3ccncc3)c(-c3ccc(Cl)c(O)c3)n2)cc1)c1cc(Cl)cc(Cl)c1`, the GI50 in the assay with BT-549 breast was 2.53 µM; in the assay on COLO 205 colon, 9.36 µM; in the assay with DU-145 prostate, more than 32.8 µM; with HS 578T breast, 4.3 µM; in the assay with M14 melanoma, 1.95 µM; with NCI-H23 lung, 7.41 µM. Also, the GI50 with NCI-H460 lung is 4.03 µM; in the assay with SK-MEL-5 melanoma it was 1.46 µM; in the assay on SR leukemia, 3.33 µM; in the assay with UACC-62 melanoma it was 2.96 µM. Also, the TGI was more than 100 µM in the assay with BT-549 breast; more than 100 µM with COLO 205 colon; more than 100 µM with DU-145 prostate; more than 100 µM in the assay with HS 578T breast; 6.67 µM in the assay on M14 melanoma; more than 100 µM with NCI-H23 lung. Also, the TGI is more than 100 µM in the assay with NCI-H460 lung, 2.93 µM with SK-MEL-5 melanoma, more than 100 µM in the assay with SR leukemia and more than 28.1 µM in the assay on UACC-62 melanoma.

Consider `O=[N+]([O-])c1ccc2nc(N/N=C/c3ccc(O)cc3)sc2c1`, for which the GI50 is 12.3 µM in the assay with BT-549 breast; 12.4 µM with COLO 205 colon; 3.96 µM in the assay on DU-145 prostate; 3.7 µM in the assay on HS 578T breast; 5.22 µM in the assay with NCI-H23 lung; 4.18 µM in the assay on NCI-H460 lung. Further, the GI50 in the assay with SK-MEL-5 melanoma is 2.88 µM; with SR leukemia, 3.07 µM; in the assay on UACC-62 melanoma, 4.46 µM. Also, the TGI in the assay with BT-549 breast is more than 100 µM; in the assay with COLO 205 colon, 32.1 µM; with DU-145 prostate, 38.1 µM; with HS 578T breast, 38.3 µM; in the assay with NCI-H23 lung it was more than 100 µM; in the assay with NCI-H460 lung it was 24.2 µM. Besides, the results for the TGI in the assay on SK-MEL-5 melanoma, with SR leukemia and in the assay on UACC-62 melanoma were 11.1 µM, 20.7 µM and 37 µM, respectively.
